# Columns and labels:
# ENR+CD organoids = assay: Primary screen: ATP (CellTiter-Glo 3D, CTG) cell number/viability, 2.5-D 384-well ENR+CD organoids;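 also: compounds given at plating and again on day 3 over a 6-day differentiation from ENR+CV stem-cell-enriched precursors, ATP measured on day 6, plate median as control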
# [1] = tested on: ENR+CD organoids (ISC to Paneth cell differentiation); assay: Primary screen: CCh-stimulated lysozyme secretion LYZ.S, 2.5-D 384-well ENR+CD organoid differentiation; type: cell-based, mouse; details: primary screen
# Text: (§1) High-throughput screening.
# [2] = tested on: ENR+CD organoids (ISC to Paneth cell differentiation); assay: Primary screen: basal (non-stimulated) lysozyme secretion LYZ.NS, 2.5-D 384-well ENR+CD organoid differentiation; type: cell-based, mouse
# Text: as §1
# [3] = primary screen, dose 0.08 uM, FC relative to plate median
# [4] = primary screen, dose 0.08 uM, standard z score
# [5] = primary screen, dose 0.40 uM, FC relative to plate median
# [6] = primary screen, dose 0.40 uM, standard z score
# [7] = primary screen, dose 2.00 uM, FC relative to plate median
# [8] = primary screen, dose 2.00 uM, standard z score
# [9] = primary screen, dose 10.00 uM, FC relative to plate median
# [10] = primary screen, dose 10.00 uM, standard z score
# [11] = primary screen; dose 0.08 uM; FC vs plate median
# [12] = primary screen; dose 0.40 uM; FC vs plate median
# [13] = primary screen; dose 2.00 uM; FC vs plate median
# [14] = primary screen; dose 10.00 uM; FC vs plate median
# [15] = dose 0.08 uM, FC vs plate median
# [16] = dose 0.40 uM, FC vs plate median
# [17] = dose 2.00 uM, FC vs plate median
# [18] = dose 10.00 uM, FC vs plate median
# [19] = primary screen, standard z score, dose 0.08 uM
# [20] = primary screen, standard z score, dose 0.40 uM
# [21] = primary screen, standard z score, dose 2.00 uM
# [22] = primary screen, standard z score, dose 10.00 uM
# [23] = primary screen, 1st dose row of the treatment (0.08 uM by row order; dose not reprinted)
# [24] = primary screen, 2nd dose row of the treatment (0.40 uM by row order; dose not reprinted)
# [25] = primary screen, 3rd dose row of the treatment (2.00 uM by row order; dose not reprinted)
# [26] = primary screen, 4th dose row of the treatment (10.00 uM by row order; dose not reprinted)
# [27] = 1st dose row of the treatment (0.08 uM by row order; dose not reprinted)
# [28] = 2nd dose row of the treatment (0.40 uM by row order; dose not reprinted)
# [29] = 3rd dose row of the treatment (2.00 uM by row order; dose not reprinted)
# [30] = 4th dose row of the treatment (10.00 uM by row order; dose not reprinted)
Compound,"Dose.FC.CTG (ENR+CD organoids; primary screen, dose 0.08 uM) [log2 fold change]","Z.CTG (standard z score) (ENR+CD organoids; primary screen, dose 0.08 uM)","Dose.FC.CTG (ENR+CD organoids; primary screen, dose 0.40 uM) [log2 fold change]","Z.CTG (standard z score) (ENR+CD organoids; primary screen, dose 0.40 uM)","Dose.FC.CTG (ENR+CD organoids; primary screen, dose 2.00 uM) [log2 fold change]","Z.CTG (standard z score) (ENR+CD organoids; primary screen, dose 2.00 uM)","Dose.FC.CTG (ENR+CD organoids; primary screen, dose 10.00 uM) [log2 fold change]","Z.CTG (standard z score) (ENR+CD organoids; primary screen, dose 10.00 uM)",Dose.FC.LYZ.S ([1]; dose 0.08 uM) [log2 fold change],Dose.FC.LYZ.S ([1]; dose 0.40 uM) [log2 fold change],Dose.FC.LYZ.S ([1]; dose 2.00 uM) [log2 fold change],Dose.FC.LYZ.S ([1]; dose 10.00 uM) [log2 fold change],"Dose.FC.LYZ.NS ([2]; primary screen, dose 0.08 uM) [log2 fold change]","Z.LYZ.NS (standard z score) ([2]; primary screen, dose 0.08 uM)","Dose.FC.LYZ.NS ([2]; primary screen, dose 0.40 uM) [log2 fold change]","Z.LYZ.NS (standard z score) ([2]; primary screen, dose 0.40 uM)","Dose.FC.LYZ.NS ([2]; primary screen, dose 2.00 uM) [log2 fold change]","Z.LYZ.NS (standard z score) ([2]; primary screen, dose 2.00 uM)","Dose.FC.LYZ.NS ([2]; primary screen, dose 10.00 uM) [log2 fold change]","Z.LYZ.NS (standard z score) ([2]; primary screen, dose 10.00 uM)",further results
COc1ccc2cc(-c3nc(-c4ccc([S+](C)[O-])cc4)[nH]c3-c3ccncc3)ccc2c1 (centres unmarked) [Tie2 kinase inhibitor],0.005,0.012,0.074,0.177,−0.314,−0.750,−0.549,−1.311,0.018,−0.021,0.024,−0.097,0.009,0.080,0.002,0.019,0.181,1.577,−0.031,−0.274,
CNC(=O)c1ccc2cc([C@@]3(O)CCn4cncc43)ccc2c1 [TAK-700 (Orteronel)],,,,,,,,,,,,,,,,,,,,,"Dose.FC.CTG (ENR+CD organoids; [3]): −0.276 log2 fold change; Z.CTG (ENR+CD organoids; [4]): −0.659; Dose.FC.CTG (ENR+CD organoids; [5]): −0.024 log2 fold change; Z.CTG (ENR+CD organoids; [6]): −0.056; Dose.FC.CTG (ENR+CD organoids; [7]): −0.084 log2 fold change; Z.CTG (ENR+CD organoids; [8]): −0.202; Dose.FC.CTG (ENR+CD organoids; [9]): 0.092 log2 fold change; Z.CTG (ENR+CD organoids; [10]): 0.219; Dose.FC.LYZ.S ([1]; dose 0.08 uM, FC relative to plate median): 0.113 log2 fold change; Dose.FC.LYZ.S ([1]; dose 0.40 uM, FC relative to plate median): 0.090 log2 fold change; Dose.FC.LYZ.S ([1]; dose 2.00 uM, FC relative to plate median): 0.093 log2 fold change; Dose.FC.LYZ.S ([1]; dose 10.00 uM, FC relative to plate median): 0.032 log2 fold change; Dose.FC.LYZ.NS [2, 3]: 0.176 log2 fold change; Z.LYZ.NS [2, 4]: 1.535; Dose.FC.LYZ.NS [2, 5]: 0.182 log2 fold change; Z.LYZ.NS [2, 6]: 1.585; Dose.FC.LYZ.NS [2, 7]: 0.121 log2 fold change; Z.LYZ.NS [2, 8]: 1.058; Dose.FC.LYZ.NS [2, 9]: −0.002 log2 fold change; Z.LYZ.NS [2, 10]: −0.018"
CC(C)C[C@H](NC(=O)CNC(=O)c1cc(Cl)ccc1Cl)B(O)O [MLN2238],,,,,,,,,,,,,,,,,,,,,"Dose.FC.CTG (ENR+CD organoids; [11]): −1.655 log2 fold change; Dose.FC.CTG (ENR+CD organoids; [12]): −1.104 log2 fold change; Dose.FC.CTG (ENR+CD organoids; [13]): −1.233 log2 fold change; Dose.FC.CTG (ENR+CD organoids; [14]): −1.761 log2 fold change; Dose.FC.LYZ.S [1, 15]: −0.383 log2 fold change; Dose.FC.LYZ.S [1, 16]: −0.358 log2 fold change; Dose.FC.LYZ.S [1, 17]: −0.353 log2 fold change; Dose.FC.LYZ.S [1, 18]: −0.370 log2 fold change; Z.LYZ.NS [2, 4]: −2.358; Z.LYZ.NS [2, 6]: −2.477; Z.LYZ.NS [2, 8]: −2.166; Z.LYZ.NS [2, 10]: −2.597; Dose.FC.LYZ.NS [2, 11]: −0.271 log2 fold change; Dose.FC.LYZ.NS [2, 12]: −0.284 log2 fold change; Dose.FC.LYZ.NS [2, 13]: −0.249 log2 fold change; Dose.FC.LYZ.NS [2, 14]: −0.298 log2 fold change"
CC1C(=O)OC2C(O)C34C5CC(C(C)(C)C)C36C(OC(=O)C6O)OC4(C(=O)O5)C12O (centres unmarked) [Ginkgolide B],−0.076,,0.034,,−0.154,,0.177,,0.034,0.047,0.033,−0.035,0.041,,0.109,,0.061,,−0.037,,"Z.CTG (ENR+CD organoids; [19]): −0.182; Z.CTG (ENR+CD organoids; [20]): 0.081; Z.CTG (ENR+CD organoids; [21]): −0.369; Z.CTG (ENR+CD organoids; [22]): 0.422; Z.LYZ.NS [2, 19]: 0.353; Z.LYZ.NS [2, 20]: 0.950; Z.LYZ.NS [2, 21]: 0.528; Z.LYZ.NS [2, 22]: −0.326"
CN1C(=O)C(Cc2c[nH]c3ccccc23)NC1=S (centres unmarked) [Necrostatin-1],,,,,,,,,,,,,,,,,,,,,"Z.CTG (ENR+CD organoids; [4]): 0.244; Z.CTG (ENR+CD organoids; [6]): 0.401; Z.CTG (ENR+CD organoids; [8]): 0.027; Z.CTG (ENR+CD organoids; [10]): 0.328; Dose.FC.CTG (ENR+CD organoids; [11]): 0.102 log2 fold change; Dose.FC.CTG (ENR+CD organoids; [12]): 0.168 log2 fold change; Dose.FC.CTG (ENR+CD organoids; [13]): 0.011 log2 fold change; Dose.FC.CTG (ENR+CD organoids; [14]): 0.137 log2 fold change; Dose.FC.LYZ.S [1, 15]: 0.077 log2 fold change; Dose.FC.LYZ.S [1, 16]: 0.038 log2 fold change; Dose.FC.LYZ.S [1, 17]: 0.092 log2 fold change; Dose.FC.LYZ.S [1, 18]: 0.229 log2 fold change; Z.LYZ.NS [2, 4]: 0.524; Z.LYZ.NS [2, 6]: 0.174; Z.LYZ.NS [2, 8]: 1.338; Z.LYZ.NS [2, 10]: 0.496; Dose.FC.LYZ.NS [2, 11]: 0.060 log2 fold change; Dose.FC.LYZ.NS [2, 12]: 0.020 log2 fold change; Dose.FC.LYZ.NS [2, 13]: 0.154 log2 fold change; Dose.FC.LYZ.NS [2, 14]: 0.057 log2 fold change"
O=C(O)C(Cc1ccccc1[N+](=O)[O-])=NNc1nc(-c2ccc(Cl)c(Cl)c2)cs1 (mixture of isomers) [4EGI-1],−0.160,−0.383,−0.131,−0.314,0.127,0.304,−0.109,−0.261,−0.037,0.054,−0.059,0.057,0.110,0.956,0.036,0.315,0.069,0.597,−0.034,−0.300,"SSMD.CTG.Rep (strictly standardized mean difference) (ENR+CD organoids; [23]): −0.352; SSMD.CTG.Rep (strictly standardized mean difference) (ENR+CD organoids; [24]): −0.158; SSMD.CTG.Rep (strictly standardized mean difference) (ENR+CD organoids; [25]): 0.407; SSMD.CTG.Rep (strictly standardized mean difference) (ENR+CD organoids; [26]): −0.283; SSMD.LYZ.S_Rep (strictly standardized mean difference) [1, 27]: −0.264; Z.LYZ.S (standard z score) [1, 27]: −0.236; SSMD.LYZ.S_Rep (strictly standardized mean difference) [1, 28]: 0.326; Z.LYZ.S (standard z score) [1, 28]: 0.352; SSMD.LYZ.S_Rep (strictly standardized mean difference) [1, 29]: −0.328; Z.LYZ.S (standard z score) [1, 29]: −0.380; SSMD.LYZ.S_Rep (strictly standardized mean difference) [1, 30]: 0.189; Z.LYZ.S (standard z score) [1, 30]: 0.366; SSMD.LYZ.NS_Rep (strictly standardized mean difference) [2, 23]: 0.378; SSMD.LYZ.NS_Rep (strictly standardized mean difference) [2, 24]: 0.264; SSMD.LYZ.NS_Rep (strictly standardized mean difference) [2, 25]: 0.252; SSMD.LYZ.NS_Rep (strictly standardized mean difference) [2, 26]: −0.257"
C[C@H]1COC2(CCN(c3nc(=O)c4cc(C(F)(F)F)cc([N+](=O)[O-])c4s3)CC2)O1 (racemic) [BTZ043 Racemate],0.497,1.187,0.545,1.303,0.063,0.150,0.327,0.782,0.199,0.252,0.038,0.070,0.131,1.138,0.186,1.619,0.089,0.776,0.100,0.870,
CC(C)(C#N)c1cc(Cn2cncn2)cc(C(C)(C)C#N)c1 [Anastrozole],−0.117,,0.024,,−0.058,,−0.499,,0.045,0.100,−0.008,−0.081,0.035,0.305,0.106,0.924,−0.003,−0.026,−0.067,−0.580,
VU 0364770,0.013,0.031,0.085,0.204,0.083,0.199,−0.103,−0.246,0.082,0.125,0.139,0.066,0.155,1.350,0.085,0.736,0.117,1.020,0.102,0.884,

# From patent US20220323406A1, “METHODS AND COMPOSITIONS FOR DIFFERENTIATING STEM CELLS” (Massachusetts Institute of Technology, priority 2019, published 2022)
